This note sets out measurements from article PMC5342071, “A first generation inhibitor of human Greatwall kinase, enabled by structural and functional characterisation of a minimal kinase domain construct” (Oncotarget, 2016).

One assay deals with T1, hGWL-KinDom (Homo sapiens, UniProt Q96GX5).
T1 construct: that encoded amino acids (aa) 1-194 + ‘RTFC’ + 740-879 of hGWL; GST (rhinovirus 3C-protease cleavable) (N, cleaved yes); made in house; host or cells: E. coli Rosetta2(DE3)
Description: Kinase-Glo Max luminescence kinase assay with hGWL-KinDom. Format: biochemical. Particulars: Kinase-Glo Max assay; read-out: IC50 GWL-KinDom. The protocol: Non-radioactive kinase assays were set-up by combining hGWL-KinDom (305 µM in 20 mM HEPES pH 7.5, FL 500 mM NaCl, and 0.5 mM TCEP) diluted to desired concentration or immunoprecipitated hGWL on beads with ultra-pure ATP [Promega, 25 µM] and His-tagged substrate  α-endosulfine (ENSA, 2 µM) in kinase assay buffer (50 mM Tris-HCl pH 7.5, 0.5 mM EGTA, 150 mM NaCl, 0.1% v/v NP-40 and 15 mM MgCl2). The reaction was allowed to proceed for 30 min at 37 °C or another indicated time-point after which it was stopped with either SDS loading buffer (5X buffer, including 0.25 % w/v Bromophenol blue, 0.5 M DTT (dithiothreitol), 50% v/v Glycerol, 10% v/v SDS (sodium dodecyl sulphate), and 0.25M Tris-HCl pH 6.8) or Kinase-Glo Max reagent [Promega]. Recombinant His-tagged ENSA was purified using Ni-NTA agarose [QIAGEN] from BL21 E. coli following the manufacturer’s recommended protocol. […]
(§1) All kinase assays were repeated thrice per assay condition and each point on the concentration-dependent response curves represents the mean ± […]
After stopping the above non-radioactive kinase assay with 1 volume of Kinase-Glo Max reagent the mixture was allowed to incubate for a further 15 min. To detect consumption of ATP, samples were transferred to white, flat-bottom 96-well plates [Thermo Fisher Scientific, Loughborough, UK] and luminescence was detected using a POLARstar Omega micro-plate reader [BMG Labtech GmbH, Ortenberg, Germany]. As this assay measures ATP, activity or ATP turnover was measured as the -ΔRLU. […]
On the technique in general: Kinase-Glo measures the ATP left after a reaction by luminescence.

In a further assay the target is T2, hGWL^FL (Homo sapiens, UniProt Q96GX5).
T2 construct: N-terminally FLAG-tagged full-length human GWL; made in house; host or cells: HEK293T cells, transfected and nocodazole-arrested; protein captured on anti-Flag M2 beads
T2 sequence (Q96GX5 1-879): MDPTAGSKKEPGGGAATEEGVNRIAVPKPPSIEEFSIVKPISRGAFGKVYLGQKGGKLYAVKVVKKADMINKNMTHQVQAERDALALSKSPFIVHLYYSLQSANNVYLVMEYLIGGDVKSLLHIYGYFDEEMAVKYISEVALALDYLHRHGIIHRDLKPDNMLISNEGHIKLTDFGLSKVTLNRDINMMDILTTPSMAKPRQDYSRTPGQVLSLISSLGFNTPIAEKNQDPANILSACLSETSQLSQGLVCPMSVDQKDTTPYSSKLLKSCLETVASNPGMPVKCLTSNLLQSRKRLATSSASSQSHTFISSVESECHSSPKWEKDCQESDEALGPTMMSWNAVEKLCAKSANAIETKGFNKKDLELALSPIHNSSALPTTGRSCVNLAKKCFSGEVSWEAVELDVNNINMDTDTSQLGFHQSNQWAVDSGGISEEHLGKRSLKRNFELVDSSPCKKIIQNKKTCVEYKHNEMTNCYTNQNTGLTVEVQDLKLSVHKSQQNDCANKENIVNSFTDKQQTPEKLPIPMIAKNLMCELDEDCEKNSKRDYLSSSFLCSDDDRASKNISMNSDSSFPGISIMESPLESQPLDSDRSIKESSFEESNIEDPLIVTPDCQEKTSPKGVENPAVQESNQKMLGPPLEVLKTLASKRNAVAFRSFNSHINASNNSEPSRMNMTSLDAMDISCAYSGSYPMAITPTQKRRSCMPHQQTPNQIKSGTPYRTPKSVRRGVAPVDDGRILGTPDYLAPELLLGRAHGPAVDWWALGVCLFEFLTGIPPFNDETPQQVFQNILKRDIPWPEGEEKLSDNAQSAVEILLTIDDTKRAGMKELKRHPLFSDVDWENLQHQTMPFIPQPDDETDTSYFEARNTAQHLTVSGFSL
The experiment in a line: Immunoprecipitation kinase assay with Flag-tagged hGWL^FL (p-ENSA western). Format: biochemical. Particulars: for IC50: immunoprecipitated Flag-tagged hGWL^FL, read-out: IC50 GWL^FL. The protocol:
500 mM NaCl, and 0.5 mM TCEP) diluted to desired concentration or immunoprecipitated hGWL on beads with ultra-pure ATP [Promega, 25 µM] and His-tagged substrate  α-endosulfine (ENSA, 2 µM) in kinase assay buffer (50 mM Tris-HCl pH 7.5, 0.5 mM EGTA, 150 mM NaCl, 0.1% v/v NP-40 and 15 mM MgCl2). The […]
(dithiothreitol), 50% v/v Glycerol, 10% v/v SDS (sodium dodecyl sulphate), and 0.25M Tris-HCl pH 6.8) or Kinase-Glo Max reagent [Promega]. Recombinant His-tagged ENSA was purified using Ni-NTA agarose [QIAGEN] from BL21 E. coli following the manufacturer’s recommended protocol. […]
as §1
Immunoprecipitation Kinase Assay
HEK293T cells were transfected with 10 µg of plasmid (Flag-tagged hGWLFL or GFP; pcDNA3-EGFP, Addgene, Cambridge MA, USA) using CaCl2. […]
incubated for a further 16–18 h. Cells were collected and washed in PBS-A followed by lysis on ice for 20 min in 1mL IP buffer (50 mM Tris-HCl pH 7.5, 150 mM NaCl, 10% v/v glycerol, 0.5% v/v NP-40, 1 mM EDTA supplemented with protease and phosphatase inhibitors (Complete and PhosStop; Roche Diagnostics)). Samples were then sonicated and clarified by centrifugation at 13,000 rpm for 30 min at 4°C. To capture Flag-tagged […]
hGWLFL, 100 µl of lysate was diluted 5-fold with IP buffer and combined with 3 µl anti-Flag M2 magnetic Dynabeads [Sigma-Aldrich] overnight at 4 °C. After sequential washes with IP buffer, 1:1 mix of IP and kinase assay buffers and a final wash in kinase assay buffer, the beads were then used in the kinase assay. The reaction was stopped by adding SDS loading buffer and analysed by western blot: p-ENSA and GWL levels were detected using the anti-phospho(Ser67)-ENSA and anti-MASTL(GWL, Prestige) antibodies. Activity was measured as the p-ENSA/GWL ratio and % kinase activity was normalised to the DMSO control. All kinases assays were repeated thrice per assay condition and each point on the concentration-dependent response curves represents the mean ± 1 S.D. […]

T1 sequence (Q96GX5 with tags, fused parts or gaps limits assumed): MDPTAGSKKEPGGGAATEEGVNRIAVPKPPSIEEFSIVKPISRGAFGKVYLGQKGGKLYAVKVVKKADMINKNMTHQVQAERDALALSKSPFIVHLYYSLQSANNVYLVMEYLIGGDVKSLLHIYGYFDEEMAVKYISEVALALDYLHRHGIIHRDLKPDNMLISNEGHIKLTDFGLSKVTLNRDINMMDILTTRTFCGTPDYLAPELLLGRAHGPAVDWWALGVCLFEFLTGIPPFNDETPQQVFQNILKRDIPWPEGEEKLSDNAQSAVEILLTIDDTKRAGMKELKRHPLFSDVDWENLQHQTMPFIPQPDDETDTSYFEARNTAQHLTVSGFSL

Consider `CCN(CC)Cc1ccc(Nc2nccc(-c3cnn4ncccc34)n2)cc1` [GRI-4], for which the 50% inhibitory concentration (IC50) turned out to be 3.22 ± 0.31 µM on hGWL-KinDom and 2.5 µM on hGWL^FL.
Take `Clc1ccc(Nc2cccc(-c3cn[nH]c3)c2)cc1` [GKI-1, N-(4-chlorophenyl)-3-(1H-pyrazol-4-yl)aniline]: the concentration for half-maximal inhibition (IC50) at hGWL-KinDom is 2.5 µM. Besides, at hGWL^FL (for GKI-1: EC50 hGWL^FL vs IC50 hGWL-KinDom), the “inhibitory ratio (IC50 GWL^FL/IC50 GWL-KinDom)” value is ~ 2. In addition, the half-maximal effective concentration (EC50) at hGWL^FL (immunoprecipitated hGWL^FL, read-out: EC50 GWL^FL) amounted to 4.9 µM.
`CN(C)CC#Cc1cccc(C(=O)c2cnn(-c3ccc(F)cc3)c2N)c1` [GRI-3]: the concentration for half-maximal inhibition (IC50) at hGWL-KinDom is 109 ± 13.7 µM; at hGWL^FL, 66 µM.

A word on the IC50: it is the point on the concentration scale where inhibition reaches its midpoint. By EC50 is commonly meant the concentration at which the effect is half-maximal.
